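The compound was tested at five concentrations on cells cultured in 96-well plates, with a 48-hour exposure period. GI50 marks 50% less growth. TGI denotes the concentration required for complete inhibition of growth.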
Assays:
Test in all cases: DTP human tumour cell line panel, 48 h; in the data active = GI50 below about 0.43 µM; inactive = the rest
786-0 renal = test system: 786-0 renal
A498 renal = test system: A498 renal
A549 NSCLC = test system: A549 NSCLC
ACHN renal = test system: ACHN renal
CAKI-1 renal = test system: CAKI-1 renal
CCRF-CEM leukemia = test system: CCRF-CEM leukemia
DLD-1 colon = test system: DLD-1 colon
EKVX NSCLC = test system: EKVX NSCLC
HCC-2998 colon = test system: HCC-2998 colon
HCT-116 colon = test system: HCT-116 colon
HCT-15 colon = test system: HCT-15 colon
HOP-18 NSCLC = test system: HOP-18 NSCLC
HOP-62 NSCLC = test system: HOP-62 NSCLC
HT29 colon = test system: HT29 colon
K-562 leukemia = test system: K-562 leukemia
KM12 colon = test system: KM12 colon
KM20L2 colon = test system: KM20L2 colon
LXFL 529 NSCLC = test system: LXFL 529 NSCLC
M14 melanoma = test system: M14 melanoma
MALME-3M melanoma = test system: MALME-3M melanoma
MOLT-4 leukemia = test system: MOLT-4 leukemia
NCI-H23 lung = test system: NCI-H23 lung
NCI-H460 lung = test system: NCI-H460 lung
NCI-H522 lung = test system: NCI-H522 lung
OVCAR-3 ovarian = test system: OVCAR-3 ovarian
OVCAR-4 ovarian = test system: OVCAR-4 ovarian
OVCAR-5 ovarian = test system: OVCAR-5 ovarian
OVCAR-8 ovarian = test system: OVCAR-8 ovarian
RPMI-8226 leukemia = test system: RPMI-8226 leukemia
SF-268 CNS = test system: SF-268 CNS
SF-295 CNS = test system: SF-295 CNS
SF-539 CNS = test system: SF-539 CNS
SK-MEL-2 melanoma = test system: SK-MEL-2 melanoma
SK-MEL-28 melanoma = test system: SK-MEL-28 melanoma
SK-MEL-5 melanoma = test system: SK-MEL-5 melanoma
SN12C renal = test system: SN12C renal
SNB-19 CNS = test system: SNB-19 CNS
SNB-75 CNS = test system: SNB-75 CNS
SNB-78 CNS = test system: SNB-78 CNS
SW-620 colon = test system: SW-620 colon
TK-10 renal = test system: TK-10 renal
U251 CNS = test system: U251 CNS
UACC-257 melanoma = test system: UACC-257 melanoma
UO-31 renal = test system: UO-31 renal
XF 498 CNS = test system: XF 498 CNS
COLO 205 colon = test system: COLO 205 colon
DMS 273 small cell lung = test system: DMS 273 small cell lung
HL-60(TB) leukemia = test system: HL-60(TB) leukemia
HOP-92 NSCLC = test system: HOP-92 NSCLC
IGROV1 ovarian = test system: IGROV1 ovarian
LOX IMVI melanoma = test system: LOX IMVI melanoma
M19-MEL melanoma = test system: M19-MEL melanoma
NCI-H226 lung = test system: NCI-H226 lung
RXF 393 renal = test system: RXF 393 renal
SK-OV-3 ovarian = test system: SK-OV-3 ovarian
UACC-62 melanoma = test system: UACC-62 melanoma

COc1ccc2ccnc(Cc3ccc(OCc4ccccc4)c(OC)c3)c2c1
44.6 µM: TGI (U251 CNS)
42.7 µM: TGI (EKVX NSCLC)
38.4 µM: TGI (HCC-2998 colon)
79.5 µM: TGI (A549 NSCLC)
37.1 µM: TGI (KM12 colon)
44.9 µM: TGI (HCT-15 colon)
65.3 µM: TGI (RPMI-8226 leukemia)
33.2 µM: TGI (M14 melanoma)
44.5 µM: TGI (786-0 renal)
68.1 µM: TGI (SF-295 CNS)
29.8 µM: TGI (SN12C renal)
80.6 µM: TGI (LXFL 529 NSCLC)
19.8 µM: TGI (UO-31 renal)
31.2 µM: TGI (XF 498 CNS)
34 µM: TGI (OVCAR-4 ovarian)
67.6 µM: TGI (SNB-78 CNS)
83.6 µM: TGI (CCRF-CEM leukemia)
> 100 µM: TGI (CAKI-1 renal) | TGI (DLD-1 colon) | TGI (HT29 colon) | TGI (K-562 leukemia) | TGI (KM20L2 colon) | TGI (OVCAR-5 ovarian) | TGI (SNB-19 CNS) | TGI (SW-620 colon)
46.6 µM: TGI (MOLT-4 leukemia)
93.2 µM: TGI (TK-10 renal)
33.9 µM: TGI (MALME-3M melanoma)
37.8 µM: TGI (NCI-H460 lung)
34.2 µM: TGI (OVCAR-3 ovarian)
76.7 µM: TGI (SNB-75 CNS)
62.5 µM: TGI (HOP-18 NSCLC)
43.5 µM: TGI (OVCAR-8 ovarian)
76.3 µM: TGI (ACHN renal)
32.3 µM: TGI (SF-539 CNS)
29.9 µM: TGI (SK-MEL-5 melanoma)
53 µM: TGI (NCI-H23 lung)
44.7 µM: TGI (UACC-257 melanoma)
35.3 µM: TGI (HOP-62 NSCLC)
54.5 µM: TGI (A498 renal)
72.7 µM: TGI (NCI-H522 lung)
33.4 µM: TGI (SK-MEL-28 melanoma)
70.3 µM: TGI (SF-268 CNS)
39.7 µM: TGI (SK-MEL-2 melanoma)
29.7 µM: TGI (HCT-116 colon)

N[C@@H]1CCCC[C@@H]1N.O=P([O-])([O-])CNCP(=O)([O-])[O-].[Pt+2]
> 100 µM: TGI (786-0 renal) | TGI (A498 renal) | TGI (A549 NSCLC) | TGI (ACHN renal) | TGI (CAKI-1 renal) | TGI (CCRF-CEM leukemia) | TGI (COLO 205 colon) | TGI (DLD-1 colon) | TGI (DMS 273 small cell lung) | TGI (HCC-2998 colon) | TGI (HCT-116 colon) | TGI (HCT-15 colon) | TGI (HL-60(TB) leukemia) | TGI (HOP-18 NSCLC) | TGI (HOP-62 NSCLC) | TGI (HOP-92 NSCLC) | TGI (HT29 colon) | TGI (IGROV1 ovarian) | TGI (K-562 leukemia) | TGI (KM12 colon) | TGI (KM20L2 colon) | TGI (LOX IMVI melanoma) | TGI (LXFL 529 NSCLC) | TGI (M14 melanoma) | TGI (M19-MEL melanoma) | TGI (MALME-3M melanoma) | TGI (MOLT-4 leukemia) | TGI (NCI-H226 lung) | TGI (NCI-H23 lung) | TGI (NCI-H460 lung) | TGI (NCI-H522 lung) | TGI (OVCAR-3 ovarian) | TGI (OVCAR-4 ovarian) | TGI (OVCAR-8 ovarian) | TGI (RPMI-8226 leukemia) | TGI (RXF 393 renal) | TGI (SF-268 CNS) | TGI (SF-295 CNS) | TGI (SF-539 CNS) | TGI (SK-MEL-2 melanoma) | TGI (SK-MEL-28 melanoma) | TGI (SK-MEL-5 melanoma) | TGI (SK-OV-3 ovarian) | TGI (SN12C renal) | TGI (SNB-19 CNS) | TGI (SNB-75 CNS) | TGI (SNB-78 CNS) | TGI (SW-620 colon) | TGI (TK-10 renal) | TGI (U251 CNS) | TGI (UACC-257 melanoma) | TGI (UACC-62 melanoma) | TGI (UO-31 renal) | TGI (XF 498 CNS)
inactive: GI50 (786-0 renal) > 100 µM | GI50 (A498 renal) > 100 µM | GI50 (A549 NSCLC) > 100 µM | GI50 (ACHN renal) > 100 µM | GI50 (CAKI-1 renal) > 100 µM | GI50 (CCRF-CEM leukemia) > 100 µM | GI50 (COLO 205 colon) > 100 µM | GI50 (DLD-1 colon) > 100 µM | GI50 (DMS 273 small cell lung) > 100 µM | GI50 (HCC-2998 colon) > 100 µM | GI50 (HCT-116 colon) > 100 µM | GI50 (HCT-15 colon) > 100 µM | GI50 (HL-60(TB) leukemia) > 100 µM | GI50 (HOP-18 NSCLC) > 100 µM | GI50 (HOP-62 NSCLC) > 100 µM | GI50 (HOP-92 NSCLC) > 100 µM | GI50 (HT29 colon) > 100 µM | GI50 (IGROV1 ovarian) > 100 µM | GI50 (K-562 leukemia) > 100 µM | GI50 (KM12 colon) > 100 µM | GI50 (KM20L2 colon) > 100 µM | GI50 (LOX IMVI melanoma) > 100 µM | GI50 (LXFL 529 NSCLC) > 100 µM | GI50 (M14 melanoma) > 100 µM | GI50 (M19-MEL melanoma) > 100 µM | GI50 (MALME-3M melanoma) > 100 µM | GI50 (MOLT-4 leukemia) > 100 µM | GI50 (NCI-H226 lung) > 100 µM | GI50 (NCI-H23 lung) > 100 µM | GI50 (NCI-H460 lung) > 100 µM | GI50 (NCI-H522 lung) > 100 µM | GI50 (OVCAR-3 ovarian) > 100 µM | GI50 (OVCAR-4 ovarian) > 100 µM | GI50 (OVCAR-8 ovarian) > 100 µM | GI50 (RPMI-8226 leukemia) > 100 µM | GI50 (RXF 393 renal) > 100 µM | GI50 (SF-268 CNS) > 100 µM | GI50 (SF-295 CNS) > 100 µM | GI50 (SF-539 CNS) > 100 µM | GI50 (SK-MEL-2 melanoma) > 100 µM | GI50 (SK-MEL-28 melanoma) > 100 µM | GI50 (SK-MEL-5 melanoma) > 100 µM | GI50 (SK-OV-3 ovarian) > 100 µM | GI50 (SN12C renal) > 100 µM | GI50 (SNB-19 CNS) > 100 µM | GI50 (SNB-75 CNS) > 100 µM | GI50 (SNB-78 CNS) > 100 µM | GI50 (SW-620 colon) > 100 µM | GI50 (TK-10 renal) > 100 µM | GI50 (U251 CNS) > 100 µM | GI50 (UACC-257 melanoma) > 100 µM | GI50 (UACC-62 melanoma) > 100 µM | GI50 (UO-31 renal) > 100 µM | GI50 (XF 498 CNS) > 100 µM
